The results in this text go back to US8686115B2, “Compositions and methods for quantitatively monitoring lipids” (The Board of Trustees of the University of Illinois, priority 2009, dated 2014).

The target of assay [1] is T1, DAN-eENTH: epsin 1 ENTH domain variant M10C/C96A/S4W, SEQ ID NO: 2, labeled with DAN at C10 (Homo sapiens, UniProt Q9Y6I3, C96A/M10C/S4W).
T1 construct: The Epsin1 ENTH domain (1-158 amino acids) was subcloned; GST (C, cleaved yes); made in house; host or cells: E. coli BL21 RIL codon plus
T1 sequence (Q9Y6I3 1-158 S4W/M10C/C96A): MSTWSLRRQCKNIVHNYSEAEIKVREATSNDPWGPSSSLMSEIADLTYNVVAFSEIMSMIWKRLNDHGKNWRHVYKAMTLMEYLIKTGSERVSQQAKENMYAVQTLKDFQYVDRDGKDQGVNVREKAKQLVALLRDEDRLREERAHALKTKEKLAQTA
As to the kind of experiment: SPR: effect of IP3 on DAN-eENTH binding to PtdIns(4,5)P2-containing vesicles. To be noted: 5 μM IP3; 50 nM DAN-eENTH; POPC/POPS/PtdIns(4,5)P2 (77:20:3) LUVs; 5 min incubation; pH 7.4. The procedure:
(§1) With respect to FIG. 1, an L1 sensor chip was coated with POPC/POPS/PtdIns(4,5)P2 (77:20:3) LUVs. The proteins were incubated with a given concentration of IP3 for 5 minutes before injecting into the SPR instrument. Kinetic SPR measurements were performed in 20 mM Tris-HCL, pH 7.4, containing 0.16 KCl. […] A lower concentration of DAN-eENTH was used than that of PLCδ PH because the former has much higher affinity that the latter.
(In general: Surface plasmon resonance follows binding to a sensor surface in real time, without labels.)

A further assay relates to PLCδ PH domain. As to the kind of experiment: SPR: inhibition by IP3 of PLCδ PH domain binding to PtdIns(4,5)P2-containing vesicles. The following applies: 5 μM IP3; 250 nM PLCδ PH domain; POPC/POPS/PtdIns(4,5)P2 (77:20:3) LUVs; 5 min incubation; pH 7.4. The procedure:
as §1

In assay [2] the test system is PtdIns(4,5)P2 in the plasma membrane. In words: Effect of ionomycin on plasma membrane PtdIns(4,5)P2 in cells microinjected with DAN-eENTH. The following applies: majority of DAN-eENTH released to the cytosol. The assay is classed as cell-based. The procedure: [DAN-eENTH] was adjusted to give strong enough FB and FG signals for robust data analysis. […] Also, when [PtdIns(4,5)P2] in the plasma membrane was lowered by ionomycin treatment, a majority of DAN-eENTH was released to the cytosol.
NIH 3T3 cells were seeded into 8-well plates and grown at 37° C. in a humidified atmosphere of 95% air and 5% CO2 in Dulbecco's modified Eagle's medium (DMEM) (Invitrogen) supplemented with 10% (v/v) fatal bovine serum (Invitrogen). DAN-eENTH was delivered into the cells by microinjection using the Eppendorf InjectMan NI 2 system. All microscopy measurements and data analysis were performed as described above. For cell measurements, the minimal FB value was taken from the cytosol where PtdIns(4,5)P2 is absent and (FB)max was taken after the excess amount of exogenous PtdIns(4,5)P2 was delivered to the cell by either microinjection or as vesicle formulation. […] Thus, the cellular [PtdIns(4,5)P2] was determined from the observed (FB/FG) values using the in vitro calibration curve determined using POPC/POPS/PtdIns(4,5)P2 GUVs.

Assay [3] can be described thus: SPR analysis of lipid selectivity of Lact-C2 and mutant. Format: binding. To be noted: FIG. 12(a), 12(b). The text has this: The Lact-C2 domain was converted into a PA-specific protein through protein engineering based on the crystal structure of Lact-C2 (J. Biol. Chem., (283)7230-7241 (2008)) and our molecular insight into PA and PS binding proteins. In the crystal structure, D80, H83, and Q85 interact with the serine head group of PS, so we mutated them to R, E, and K, respectively, to abrogate PS binding. Since PA has higher negative charge density without the head group, a mutant without PS binding may still interact with PA with high affinity. […] PA formation in NIH 3T3 cells in the presence of the phorbol ester, PMA, was successfully quantified.

On to `O=P(O)(O)O[C@@H]1[C@H](O)[C@H](O)[C@@H](OP(=O)(O)O)[C@H](OP(=O)(O)O)[C@H]1O` [IP3, inositol-(1,4,5)-triphosphate], for which the “effect on binding to PtdIns(4,5)P2-containing vesicles” value in assay [1] is given as “minimal effect”. The “inhibition of binding to PtdIns(4,5)P2-containing vesicles” value with PLCδ PH domain was above 70%.

On to `C[C@H](CCC(=O)O)C[C@H](C)C[C@H](C)C(=O)/C=C(\O)[C@H](C)C[C@H](C)C/C=C/[C@@H](C)[C@@H](O)[C@@H](C)[C@@H](O)C[C@@H]1CC[C@@](C)([C@H]2CC[C@@](C)([C@@H](C)O)O2)O1` [ionomycin], for which the “[PtdIns(4,5)P2] in the plasma membrane upon ionomycin treatment” value in assay [2] is “lowered”.

B1: Lact-C2: C2 domain of bovine lactadherin, SEQ ID NO:3 (protein)
chain: CTEPLGLKDNTIPNKQITASSYYKTWGLSAFSWFPYYARLDNQGKFNAWTAQTNSASEWLQIDLGSQKRVTGIITQGARDFGHIQYVAAYRVAYGDDGVTWTEYKDPGASESKIFPGNMDNNSHKKNIFETPFQARFVRIQPVAWHNRITLRVELLGC
modifications: C2 domain of bovine lactadherin.
Regarding B1, the “lipid selectivity by SPR” value in assay [3] is listed as “PS-specific”.
